# Test results taken from US6683166B2, “Modified internucleoside linkages (ii)” (ISIS Pharmaceuticals, Inc., priority 1992, dated 2004).
# Key:
# Format in all cases: binding
# [1] = test system: Single Stranded Target (DNA); test: Thermal denaturation Tm, DNA-duplex
# Procedure: (§1) RNA and DNA duplex and DNA-triplex experiments utilizing certain desirable modified internucleoside linkages of this invention were conducted to determine those linkages' effect on the Tm values of the resulting oligonucleotides.
# (§2) These experiments were carried out in a buffered solution (140 mM KCl, 5 mM Na2HPO4, and 1 mM MgCl2) at pH=6.6 (except for the 2′-5′ carbamate which was buffered at pH=7.0) according to the following protocol: 0.15 ODs of the target RNA/DNA was combined with 0.1 OD of the oligomer being assayed in a sterile eppendorf tube and dried. To this mixture was added 300 λ of Tm buffer and the solution was stirred. Tm values were then determined by a first derivative plot of absorbance versus temperature. Thermal denaturation analysis was carried out-with a heating rate of 0.25° C./min and absorbance was monitored at 260 nm.
# (§3) The test oligomers that were synthesized for analysis were of the following sequence:
# (§4) 5′-TC^mTC^mTC^mTC^mTC^mT^TT^TT-3′
# (§5) where T=thymidine, C^m=5-methyl-2′-deoxycytidine, and T^T=a thymidine-thymidine dimer with an experimental linkage of the structure detailed in the table below. All other linkages were phosphodiester.
# [2] = test system: Single Stranded Target (RNA); test: Thermal denaturation Tm, DNA-RNA-duplex
# Procedure: as §1, §2, §3, §4, §5
# [3] = test system: Target Duplex Sequence (DNA) 5′ AGAGAGAGAGAAAAA 3′; test: Thermal denaturation Tm, DNA-Triplex
# Procedure: as §1, §2, §3, §4, §5
# [4] = Tm change per substituted linkage vs control of the same group
substance,measurement,setting,value
"5′-2′ thioformacetal: Test oligomer 5′-TCmTCmTCmTCmTCmT^TT^TT-3′, the two T^T dimers having a 5′-2′ thioformacetal linkage; other linkages phosphodiester",DNA-duplex Tm,"[1]; 140 mM KCl, 5 mM Na2HPO4, 1 mM MgCl2, pH 6.6 (2′-5′ carbamate buffered at pH 7.0), first derivative of A260 vs temperature",53.0
same,DNA-duplex ° C./subst,[1]; [4],+1.8 ° C./subst
same,DNA-RNA-duplex Tm,"[2]; 140 mM KCl, 5 mM Na2HPO4, 1 mM MgCl2, pH 6.6 (2′-5′ carbamate buffered at pH 7.0)",58.5
same,DNA-RNA-duplex ° C./subst,[2]; [4],−1.5 ° C./subst
same,DNA-Triplex Tm,"[3]; 140 mM KCl, 5 mM Na2HPO4, 1 mM MgCl2, pH 6.6",39.0
same,DNA-Triplex ° C./subst,"[3]; pH 6.6, Tm change per substituted linkage vs control",0 ° C./subst
